# Paper PMC12736255, “Reinvestigating Pyrrol-2-One-Based Compounds: From Antimicrobial Agents to Promising Antitumor Candidates” (Pharmaceuticals, 2025)
# What was measured:
# [1] = test system: LN-229; test: CellTiter-Glo 2.0 cytotoxicity, glioblastoma; assay type: cell-based, human; conditions: LN-229, 24 h
# Protocol: (§1) Cytotoxicity of compounds was assessed using the CellTiter-Glo® 2.0 Assay (Promega, Madison, WI, USA) on human gingival fibroblasts (HGF), osteosarcoma (HOS and MG-63) and glioblastoma (LN-229 and U-118MG) cells, according to the manufacturer’s instructions. HGF, HOS, MG-63 and U-118MG cells were purchased from Cytion GmbH, Eppelheim, Germany, and LN-229 (CRL-2611) from the American Type Culture Collection (ATCC), Manassas, VA, USA. Cells were seeded (50,000 cells/mL—HGF, 100,000 cells/mL—tumor cells) into 96-well opaque white tissue culture-treated plates and allowed to adhere overnight in αMEM medium with 10% fetal bovine serum and 1% antibiotic-antimycotic (all from PAN—Biotech GmbH, Aidenbach, Germany). Cells were incubated with compounds (10 or 50 µM) for 24 h, then CellTiter-Glo® reagent was added and luminescence was recorded using a FLUOstar® Omega microplate reader (BMG LABTECH, Ortenberg, Germany). The experiments were carried out in triplicate, and the viability of treated cells was expressed as a percentage of the viability of control cells (untreated). Data were represented as means ± standard deviations. Stock solutions of compounds were prepared in DMSO, then diluted in complete cell culture media. […] Data were analyzed with independent two-tailed (Student’s) t-test, considering p < 0.05 statistically significant.
# [2] = test system: U-118MG; test: CellTiter-Glo 2.0 cytotoxicity, glioblastoma; assay type: cell-based, human; conditions: 50 µM, 24 h
# Protocol: as §1
# [3] = test system: HL-60(TB); test: NCI-60 5-dose screen; assay type: cell-based, human; conditions: for GI50 / CC50: Homo sapiens; for CC50: read-out: LC50 (the source's name)
# [4] = test system: SR; test: NCI-60 5-dose screen; assay type: cell-based, human; conditions: for GI50 / CC50: Homo sapiens; for CC50: read-out: LC50 (the source's name)
# [5] = test system: CCRF-CEM; test: NCI-60 5-dose screen; assay type: cell-based; conditions: Homo sapiens; for CC50: read-out: LC50 (the source's name)
# [6] = test system: MOLT-4; test: NCI-60 5-dose screen; assay type: cell-based, human; conditions: for GI50 / CC50: Homo sapiens; for CC50: read-out: LC50 (the source's name)
# [7] = test system: RPMI-8226; test: NCI-60 5-dose screen; assay type: cell-based, human; conditions: for GI50 / CC50: Homo sapiens; for CC50: read-out: LC50 (the source's name)
# [8] = test system: HOP-92; test: NCI-60 5-dose screen; assay type: cell-based, human; conditions: for GI50 / CC50: Homo sapiens; for CC50: read-out: LC50 (the source's name)
# [9] = test system: A549/ATCC; test: NCI-60 5-dose screen; assay type: cell-based, human; conditions: for GI50 / CC50: Homo sapiens; for CC50: read-out: LC50 (the source's name)
# [10] = test system: KM12; test: NCI-60 5-dose screen; assay type: cell-based, human; conditions: for GI50 / CC50: Homo sapiens; for CC50: read-out: LC50 (the source's name)
# [11] = test system: HCT-116; test: NCI-60 5-dose screen; assay type: cell-based, human; conditions: for GI50 / CC50: Homo sapiens; for CC50: read-out: LC50 (the source's name)
# [12] = test system: COLO 205; test: NCI-60 5-dose screen; assay type: cell-based, human; conditions: for GI50 / CC50: Homo sapiens; for CC50: read-out: LC50 (the source's name)
# [13] = test system: SF-268; test: NCI-60 5-dose screen; assay type: cell-based, human; conditions: for GI50 / CC50: Homo sapiens; for CC50: read-out: LC50 (the source's name)
# [14] = test system: U251; test: NCI-60 5-dose screen; assay type: cell-based, human; conditions: for GI50 / LC50 (50% lethal concentration): Homo sapiens, U-251
# [15] = test system: MALME-3M; test: NCI-60 5-dose screen; assay type: cell-based, human; conditions: for GI50 / CC50: Homo sapiens, Malme-3M; for CC50: read-out: LC50 (the source's name); for TGI: MALME-3M
# [16] = test system: LOX IMVI; test: NCI-60 5-dose screen; assay type: cell-based, human; conditions: for GI50 / CC50: Homo sapiens; for CC50: read-out: LC50 (the source's name)
# [17] = test system: OVCAR-3; test: NCI-60 5-dose screen; assay type: cell-based, human; conditions: for GI50 / CC50: Homo sapiens; for CC50: read-out: LC50 (the source's name)
# [18] = test system: OVCAR-4; test: NCI-60 5-dose screen; assay type: cell-based, human; conditions: for GI50 / CC50: Homo sapiens; for CC50: read-out: LC50 (the source's name)
# [19] = test system: IGROV1; test: NCI-60 5-dose screen; assay type: cell-based, human; conditions: for GI50 / CC50: Homo sapiens; for GI50: IGROV-1; for CC50: IGROV-1, read-out: LC50 (the source's name)
# [20] = test system: A498; test: NCI-60 5-dose screen; assay type: cell-based, human; conditions: for GI50 / CC50: Homo sapiens; for CC50: read-out: LC50 (the source's name)
# [21] = test system: ACHN; test: NCI-60 5-dose screen; assay type: cell-based, human; conditions: for GI50 / CC50: Homo sapiens; for CC50: read-out: LC50 (the source's name)
# [22] = test system: RXF 393; test: NCI-60 5-dose screen; assay type: cell-based, human; conditions: for GI50 / CC50: Homo sapiens; for CC50: read-out: LC50 (the source's name)
# [23] = test system: HS 578T; test: NCI-60 5-dose screen; assay type: cell-based, human; conditions: for GI50 / CC50: Homo sapiens; for CC50: read-out: LC50 (the source's name)
# [24] = test system: MDA-MB-468; test: NCI-60 5-dose screen; assay type: cell-based, human; conditions: for GI50 / CC50: Homo sapiens; for CC50: read-out: LC50 (the source's name)
# [25] = test system: fungal strains; parameters: method as in PMID 38398524; conditions: cited from earlier work
# [26] = test system: human gingival fibroblasts (HGF); test: CellTiter-Glo 2.0 cytotoxicity, normal fibroblasts; assay type: cell-based; conditions: 50 µM, 24 h
# Protocol: as §1
# [27] = test system: osteosarcoma (HOS and MG-63) cells; test: CellTiter-Glo 2.0 cytotoxicity, osteosarcoma; assay type: cell-based, human; conditions: osteosarcoma cell lines, 10 and 50 µM, 24 h
# Protocol: as §1
compound,measurement,setting,value
O=C1C(Nc2ccc(I)cc2)=CC(c2ccc(C(F)(F)F)cc2)N1c1ccc(I)cc1 (centres unmarked) [3e],cytotoxicity (activity in words),[1],ineffective
same,cytotoxicity (activity in words),[2],moderate activity
same,TGI,[3],>100 µM
same,GI50,[3],4.48 µM
same,CC50,[3],> 100 µM
same,TGI,[4],>100 µM
same,GI50,[4],2.84 µM
same,CC50,[4],> 100 µM
same,GI50,[5],3.35 µM
same,CC50,[5],> 100 µM
same,TGI,[6],>100 µM
same,GI50,[6],2.92 µM
same,CC50,[6],> 100 µM
same,TGI,[7],>100 µM
same,GI50,[7],5.38 µM
same,CC50,[7],> 100 µM
same,TGI,[8],7.22 µM
same,GI50,[8],3.15 µM
same,CC50,[8],> 100 µM
same,TGI,[9],>100 µM
same,GI50,[9],> 100 µM
same,CC50,[9],> 100 µM
same,TGI,[10],>100 µM
same,GI50,[10],> 100 µM
same,CC50,[10],> 100 µM
same,TGI,[11],>100 µM
same,GI50,[11],5.92 µM
same,CC50,[11],> 100 µM
same,TGI,[12],>100 µM
same,GI50,[12],4.57 µM
same,CC50,[12],> 100 µM
same,TGI,[13],>100 µM
same,GI50,[13],4.66 µM
same,CC50,[13],> 100 µM
same,TGI,[14],>100 µM
same,GI50,[14],8.97 µM
same,LC50 (50% lethal concentration),[14],> 100 µM
same,GI50,[15],2 µM
same,CC50,[15],9.34 µM
same,TGI,[15],4.32 µM
same,TGI,[16],>100 µM
same,GI50,[16],> 100 µM
same,CC50,[16],> 100 µM
same,TGI,[17],>100 µM
same,GI50,[17],7.48 µM
same,CC50,[17],> 100 µM
same,TGI,[18],4.41 µM
same,GI50,[18],1.82 µM
same,CC50,[18],> 100 µM
same,TGI,[19],>100 µM
same,GI50,[19],> 100 µM
same,CC50,[19],> 100 µM
same,TGI,[20],3.56 µM
same,GI50,[20],1.95 µM
same,CC50,[20],6.5 µM
same,TGI,[21],>100 µM
same,GI50,[21],4.05 µM
same,CC50,[21],> 100 µM
same,TGI,[22],>100 µM
same,GI50,[22],4.23 µM
same,CC50,[22],> 100 µM
same,TGI,[23],9.97 µM
same,GI50,[23],3.45 µM
same,CC50,[23],> 100 µM
same,TGI,[24],>100 µM
same,GI50,[24],3.24 µM
same,CC50,[24],> 100 µM
COc1ccccc1C1C=C(Nc2ccc(I)cc2)C(=O)N1c1ccc(I)cc1 (centres unmarked) [3i],antifungal activity (in words),[25],most effective against fungal strains
O=C1C(Nc2ccc(I)cc2)=CC(c2ccc(O)c(O)c2)N1c1ccc(I)cc1 (centres unmarked) [3h],cytotoxicity (activity in words),[26],acute cytotoxicity
same,cytotoxicity (activity in words),[1],ineffective
same,cytotoxicity (activity in words),[2],moderate activity
same,cytotoxicity (activity in words),[27],notable activity
same,TGI,[3],4.28 µM
same,GI50,[3],2.19 µM
same,CC50,[3],8.38 µM
same,TGI,[4],2.99 µM
same,GI50,[4],1.55 µM
same,CC50,[4],5.75 µM
same,GI50,[5],3.09 µM
same,CC50,[5],3.61 µM
same,TGI,[6],4.17 µM
same,GI50,[6],2.08 µM
same,CC50,[6],8.35 µM
same,TGI,[7],6.01 µM
same,GI50,[7],2.4 µM
same,CC50,[7],> 100 µM
same,TGI,[8],8.97 µM
same,GI50,[8],4.08 µM
same,CC50,[8],> 100 µM
same,TGI,[9],>100 µM
same,GI50,[9],> 100 µM
same,CC50,[9],> 100 µM
same,TGI,[10],>100 µM
same,GI50,[10],5.22 µM
same,CC50,[10],> 100 µM
same,TGI,[11],>100 µM
same,GI50,[11],7.43 µM
same,CC50,[11],> 100 µM
same,TGI,[12],>100 µM
same,GI50,[12],6.65 µM
same,CC50,[12],> 100 µM
same,TGI,[13],>100 µM
same,GI50,[13],6.04 µM
same,CC50,[13],> 100 µM
same,TGI,[14],>100 µM
same,GI50,[14],> 100 µM
same,LC50 (50% lethal concentration),[14],> 100 µM
same,GI50,[15],2.68 µM
same,CC50,[15],> 100 µM
same,TGI,[15],>100 µM
same,TGI,[16],>100 µM
same,GI50,[16],> 100 µM
same,CC50,[16],> 100 µM
same,TGI,[17],>100 µM
same,GI50,[17],9.16 µM
same,CC50,[17],> 100 µM
same,TGI,[18],>100 µM
same,GI50,[18],3.27 µM
same,CC50,[18],> 100 µM
same,TGI,[19],>100 µM
same,GI50,[19],> 100 µM
same,CC50,[19],> 100 µM
same,TGI,[20],>100 µM
same,GI50,[20],> 100 µM
same,CC50,[20],> 100 µM
same,TGI,[21],>100 µM
same,GI50,[21],> 100 µM
same,CC50,[21],> 100 µM
same,TGI,[22],>100 µM
same,GI50,[22],6.25 µM
same,CC50,[22],> 100 µM
same,TGI,[23],>100 µM
same,GI50,[23],6.65 µM
same,CC50,[23],> 100 µM
same,TGI,[24],>100 µM
same,GI50,[24],3.1 µM
same,CC50,[24],> 100 µM
